Experimental data published in PubChem BioAssay (NCI).
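Cultured in 96-well plates, cells were exposed to test compound for 48 hours across five concentrations. Here, GI50 denotes the concentration required for 50% inhibition of growth. At the TGI there is no net growth.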

Assays:
Experiment in all cases: inhibition of tumour cell growth, NCI panel, 48 h
[1] = tested on: CAKI-1 renal
[2] = tested on: UACC-257 melanoma
[3] = tested on: HOP-62 NSCLC
[4] = tested on: PC-3 prostate
[5] = tested on: COLO 205 colon
[6] = tested on: OVCAR-4 ovarian
[7] = tested on: CCRF-CEM leukemia
[8] = tested on: SN12C renal
[9] = tested on: IGROV1 ovarian
[10] = tested on: SK-MEL-5 melanoma
[11] = tested on: MALME-3M melanoma
[12] = tested on: OVCAR-3 ovarian
[13] = tested on: OVCAR-8 ovarian
[14] = tested on: NCI-H460 lung
[15] = tested on: BT-549 breast
[16] = tested on: NCI-H522 lung
[17] = tested on: UACC-62 melanoma
[18] = tested on: OVCAR-5 ovarian
[19] = tested on: TK-10 renal
[20] = tested on: KM12 colon
[21] = tested on: SF-295 CNS
[22] = tested on: RPMI-8226 leukemia
[23] = tested on: SK-MEL-28 melanoma
[24] = tested on: ACHN renal
[25] = tested on: MOLT-4 leukemia
[26] = tested on: HL-60(TB) leukemia
[27] = tested on: T-47D breast
[28] = tested on: SF-539 CNS
[29] = tested on: HCC-2998 colon

Cc1ccc(C(CC(=O)c2ccccc2)C(C(=O)c2ccccc2)C(c2ccc(C)cc2)C2C(=O)NC(=S)NC2=O)cc1 (configuration not stated)
GI50 [1]: 7.7 µM | TGI [1]: 35 µM | GI50 [2]: 13.4 µM | TGI [2]: > 50 µM | GI50 [3]: > 50 µM | TGI [3]: > 50 µM | GI50 [4]: 10.4 µM | TGI [4]: > 50 µM | GI50 [5]: 8.45 µM | TGI [5]: 24.5 µM | GI50 [6]: > 50 µM | TGI [6]: > 50 µM | GI50 [7]: 15.8 µM | TGI [7]: > 50 µM | GI50 [8]: 25.1 µM | TGI [8]: > 50 µM | GI50 [9]: 19.2 µM | TGI [9]: > 50 µM | GI50 [10]: 10.6 µM | TGI [10]: > 50 µM | GI50 [11]: 15.1 µM | TGI [11]: > 50 µM | GI50 [12]: 19 µM | TGI [12]: > 50 µM | GI50 [13]: 16.9 µM | TGI [13]: > 50 µM | GI50 [14]: 6.66 µM | TGI [14]: > 50 µM | GI50 [15]: 31.7 µM | TGI [15]: > 50 µM | GI50 [16]: 7.87 µM | TGI [16]: 30.2 µM | GI50 [17]: 19.5 µM | TGI [17]: > 50 µM | GI50 [18]: 31 µM | TGI [18]: > 50 µM | GI50 [19]: 20.6 µM | TGI [19]: > 50 µM | GI50 [20]: 15 µM | TGI [20]: > 50 µM | GI50 [21]: 12.2 µM | TGI [21]: > 50 µM | GI50 [22]: 44.2 µM | TGI [22]: > 50 µM | GI50 [23]: > 50 µM | TGI [23]: > 50 µM | GI50 [24]: 11.3 µM | TGI [24]: > 50 µM | GI50 [25]: 8.85 µM | TGI [25]: > 50 µM | GI50 [26]: 18.7 µM | TGI [26]: > 50 µM | GI50 [27]: 5.78 µM | TGI [27]: > 50 µM | GI50 [28]: 28.9 µM | TGI [28]: > 50 µM | GI50 [29]: 8.68 µM
